Laboratory results from US11083717B2, “Compositions and methods for drug sensitization of parasites” (The Texas A&M University System, priority 2015, dated 2021).
Like-named read-outs stand apart in the source and are kept apart here.

Tests used:
[1] = target: Human ether-a-go-go-related gene (hERG) (Homo sapiens, UniProt Q12809); assay: hERG test (potential cardiotoxicity); type: biochemical; conditions: read-out: hERG (Abbvie)
[2] = MCLint in vitro intrinsic clearance, mouse (MLM); type: in vitro ADME
[3] = Plasma protein binding; type: in vitro ADME; conditions: mouse, mice, read-out: PPB (converted)
[4] = tested on: Cryptosporidium parvum
Protocol: The anticryptosporidial activity of the in vitro inhibitors was assessed in the IL-12 knockout mouse model that resembles the acute human disease (Ehigiator H N, Romagnoli P, Borgelt K, Fernandez M, McNair N, Secor W E, Mead J R. 2005. Mucosal cytokine and antigen-specific responses to Cryptosporidium parvum in IL-12p40 KO mice. Parasite Immunol. 27: 17-28; Campbell L D, Stewart J N, Mead J R. 2002. Susceptibility to Cryptosporidium parvum infections in cytokine- and chemokine-receptor knockout mice. J. Parasitol. 88:1014-1016). The protocol was approved by the Institutional Animal Care and Use Committees of Emory University, the AtlantaVAMedical Center, and Brandeis University. Mice (6 to 10 per group) were inoculated with 1,000 purified CP oocysts (Iowa isolate, from cattle). Treatment by gavage began 4 h postinfection with either vehicle (5% dimethyl sulfoxide (DMSO) in canola oil), 50-100 mg/kg compound, or 2,000 mg/kg paromomycin. Compounds were given for 7 days, and mice were sacrificed on day 8 (peak infection). Parasite load was quantified by fluorescence-activated cell sorting (FACS) assays for the presence of the oocysts in the feces at days 0, 4, and 7. Fecal pellets from individual mice were routinely collected daily and homogenized in adjusted volumes of 2.5% potassium dichromate. Samples were processed individually. Aliquots (200 ul) of vortexed samples were processed over microscale sucrose gradients as previously described (Arrowood M J, Hurd M R, Mead J R. 1995. A new method for evaluating experimental cryptosporidial parasite loads using immunofluorescent flowcytometry. J. Parasitol. 81:404-409). The oocyst-containing fraction was collected, washed, and treated with monoclonal antibody (OW5O-FITC) for 20 min. Samples were adjusted to 600 ul, and a portion (100 ul) was assayed with a 102-s sampling interval using logical gating of forward/side scatter and OW5O-FITC fluorescence signal on a Becton, Dickinson FACScan flow cytometer. Flow cytometry data were evaluated by analysis of variance (KaleidaGraph (Synergy Software, Reading Pa.); Microsoft Excel (Microsoft Corporation, Redmond, Wash.)).
NZ-366 (50 mg/kg) and NZ-369 (100 mg/kg) were administered via gavage in a single daily dose to IL-12 knockout mice that were infected with 1,000 CP oocysts. Additional control groups included those treated with single daily doses of vehicle, and paromomycin (Prm) (2,000 mg/kg), by oral gavage.

[5] = HCLint in vitro intrinsic clearance, human (HLM); type: in vitro ADME
[6] = Plasma pharmacokinetics in mouse; type: in vivo, female Balb/c mouse; conditions: for AUC(0-t): read-out: AUC0-24 (converted)
Protocol: To investigate the relationship between anticryptosporidial activity and systemic exposure the plasma pharmacokinetics for NZ-369 were measured. […] The pharmacokinetics of NZ-369 following single intravenous (IV) and oral administration (PO) at 3 and 10 mg free base/kg respectively to the female Balb/c mouse.

[7] = tested on: Eimeria; assay: Coccidiosis in broiler chicks, duodenal lesion scores; type: in vivo; conditions: 20 mg/bird daily by oral gavage, FIG. 7
Protocol: To determine the effects of NZ-366 and NZ-369 on coccidiosis in broiler chicks, experimental animals were divided into 4 treatment groups: Unmedicated (UNM), those receiving the experimental compounds (366 and 369); and those receiving Salinomycin (SAL).
Compounds NZ-366 and NZ-369 were administered at a dose of 20 mg/bird by oral gavage daily beginning from 11 days post-hatching. Salinomycin was administered in-feed beginning from 10 days post-hatching. Broilers were administered a 1000× dose of coccidiosis vaccine by oral gavage at 13 days post-hatching.
Lesion scores in the duodenum were lower in broiler chicks administered NZ-369 as compared to unmedicated broilers and those administered NZ-366. […] In FIG. 7, lesion scores expressed as the mean±SEM from 24 broilers per treatment.

[8] = tested on: S. cerevisiae; assay: in vitro; conditions: Saccharomyces cerevisiae
[9] = tested on: human fibroblast; assay: in vitro; conditions: human
[10] = in vitro
[11] = tested on: CP; assay: Calf study of CP infection; type: in vivo, calves
Protocol: New born calves are susceptible to CP infection. They can develop severe diarrhea like humans. Calves were inoculated with 5×10^7 CP oocysts/calf on day 0. Calves had diarrhea in both the groups at onset of dosing. Treatment was started on day 3. Calves were given NZ-369 @ 8.5 mg/kg every 12 hrs for 5 days. Fecal volume, urine volume, daily clinical evaluation, fecal consistency scores and weight gains were evaluated.

[12] = Kinetic solubility; type: physicochemical
[13] = NZ-366 50 mg/kg, NZ-369 100 mg/kg, paromomycin 2,000 mg/kg
[14] = female, Balb/c, mouse, plasma, 3 mg/kg, IV 3 mg free base/kg, single dose
[15] = female, Balb/c, mouse, plasma, 10 mg/kg, PO 10 mg free base/kg, single dose

Chain of Human ether-a-go-go-related gene (hERG) (Q12809 whole entry): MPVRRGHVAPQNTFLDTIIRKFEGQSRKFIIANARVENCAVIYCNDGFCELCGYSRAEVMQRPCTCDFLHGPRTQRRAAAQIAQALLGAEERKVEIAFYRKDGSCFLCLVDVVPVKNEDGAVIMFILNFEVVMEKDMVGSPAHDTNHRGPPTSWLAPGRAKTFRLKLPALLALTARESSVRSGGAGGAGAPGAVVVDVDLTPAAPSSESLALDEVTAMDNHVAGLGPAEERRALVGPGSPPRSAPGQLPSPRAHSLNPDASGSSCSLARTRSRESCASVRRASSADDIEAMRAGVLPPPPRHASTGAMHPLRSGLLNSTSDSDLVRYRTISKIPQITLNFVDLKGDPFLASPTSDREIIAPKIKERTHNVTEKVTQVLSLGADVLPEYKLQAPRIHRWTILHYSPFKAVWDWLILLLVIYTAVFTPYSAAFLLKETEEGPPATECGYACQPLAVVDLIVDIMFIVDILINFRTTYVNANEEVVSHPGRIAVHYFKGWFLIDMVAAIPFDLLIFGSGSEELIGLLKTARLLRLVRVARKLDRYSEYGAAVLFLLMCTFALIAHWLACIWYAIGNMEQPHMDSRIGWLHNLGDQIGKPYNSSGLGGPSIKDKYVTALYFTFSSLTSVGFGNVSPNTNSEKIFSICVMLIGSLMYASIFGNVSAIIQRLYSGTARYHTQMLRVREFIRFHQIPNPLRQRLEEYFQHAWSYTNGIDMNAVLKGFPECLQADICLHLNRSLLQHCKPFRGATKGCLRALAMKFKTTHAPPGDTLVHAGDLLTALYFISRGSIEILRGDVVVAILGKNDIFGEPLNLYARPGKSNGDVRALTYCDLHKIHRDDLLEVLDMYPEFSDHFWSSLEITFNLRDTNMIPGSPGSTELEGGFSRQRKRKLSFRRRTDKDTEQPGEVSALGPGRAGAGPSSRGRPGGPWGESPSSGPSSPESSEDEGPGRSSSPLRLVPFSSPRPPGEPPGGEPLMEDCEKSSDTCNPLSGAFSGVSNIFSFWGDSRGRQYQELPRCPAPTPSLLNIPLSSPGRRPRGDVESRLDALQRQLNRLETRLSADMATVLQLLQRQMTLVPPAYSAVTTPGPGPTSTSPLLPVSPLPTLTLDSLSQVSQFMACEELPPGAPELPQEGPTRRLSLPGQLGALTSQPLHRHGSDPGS

Structure (SMILES): CNC(=O)C(C)c1ccc(Oc2nc3ccc(Cl)cc3s2)cc1 (stereo not drawn) [NZ-369, 2-{4-[(6-chloro-1,3-benzothiazol-2-yl)oxy]phenyl}-N-methylpropanamide]
- IC50 [1]: > 30 µM
- MCLint (mL/min/g liver), MLM [2]: MLM = 3.3 mL/min/g liver
- fraction unbound [3]: 0.015
- Mouse Model (Mead) DPI7 ([4]; @100 mg/kg, day 7 post infection): DPI7 = 70%
- overt toxicity in the treated infected mice ([4]; NZ-366 50 mg/kg, NZ-369 100 mg/kg, 7 days): no overt toxicity
- anticryptosporidial activity, fecal oocysts day 7 post infection ([4]; NZ-366 50 mg/kg, NZ-369 100 mg/kg, gavage, single daily dose, FIG. 1): have anticryptosporidial activity
- effectiveness compared with paromomycin after a single dose [4, 13]: more effective than paromomycin
- effectiveness compared with paromomycin over the course of the study [4, 13]: equally as effective as paromomycin
- HCLint (mL/min/g liver), HLM [5]: HLM = 0.69 mL/min/g liver
- Clb ([6]; IV 3 mg free base/kg, single dose): 6.6 mL/min/kg
- half-life [6, 14]: 204 min
- AUC(0-t) [6, 14]: 7540 ng·h/mL
- Vd ([6]; female, Balb/c, mouse, plasma, 3 mg/kg, IV 3 mg free base/kg, single dose, read-out: Vdss): 1.7 L/kg
- Cmax [6, 15]: 2160 ng/mL
- Tmax [6, 15]: 2 h
- AUC(0-t) [6, 15]: 19800 ng·h/mL
- bioavailability ([6]; female, Balb/c, mouse, plasma, 10 mg/kg, printed in the IV column, PO 10 vs IV 3 mg free base/kg): 78.8%
- systemic pharmacokinetics (in words) ([6]; plasma): excellent systemic pharmacokinetics
- lesion scores in the duodenum vs unmedicated broilers and NZ-366 [7]: lower
- reduction of duodenal lesion scores compared with Salinomycin ([7]; Salinomycin in-feed): comparable to broiler chicks administered Salinomycin
- concentrations at which not toxic, S. cerevisiae cytotoxicity testing [8]: ≥ 100 µM
- concentrations at which not toxic, human fibroblast cytotoxicity testing [9]: ≥ 100 µM
- IC50 ([10]; Saccharomyces cerevisiae): > 100 µM
- IC50 ([10]; human): > 100 µM
- fecal volume vs control ([11]; 8.5 mg/kg every 12 hrs for 5 days from day 3, through day 8 post infection, FIG. 2): marked reduction in fecal volume
- clinical evaluation scores ([11]; 8.5 mg/kg every 12 hrs for 5 days, FIG. 4): higher clinical evaluation scores and greater improvement post-infection
- weight over the trial period vs control calf ([11]; 8.5 mg/kg every 12 hrs for 5 days, FIG. 6): maintained their weight
- fecal consistency score vs control calves ([11]; 8.5 mg/kg every 12 hrs for 5 days, days 4-7 post infection, FIG. 5): lower fecal consistency score
- urine output vs control calves ([11]; 8.5 mg/kg every 12 hrs for 5 days, except on day 4 post-infection, FIG. 3): Greater urine output
- Kinetic Sol. [12]: 86 µM
